Results published in ChEMBL document CHEMBL1137804, “Natural product-based anti-HIV drug discovery and development facilitated by the NCI developmental therapeutics program” (J Nat Prod, 2001).
In brackets after ≈: the same amount, converted by molar mass.

What was measured:
[1] = Therapeutic index, ratio of cytotoxicity against human H9 cells to EC50 for HIV1 3B; assay type: cell-based; settings: read-out: TI
[2] = Therapeutic index, ratio of cytotoxicity against human H9 cells to EC50 for HIV1 RF; assay type: cell-based; settings: read-out: TI
[3] = system: Human immunodeficiency virus 1; experiment: Antiviral activity against HIV1 3B in human H9 cells assessed as inhibition of virus-induced cytopathic effect by formazan-based conventional colorimetric technique; assay type: functional, organism-based; settings: Human immunodeficiency virus 1, 3B
[4] = system: Human immunodeficiency virus 1; experiment: Antiviral activity against HIV1 RF in human H9 cells assessed as inhibition of virus-induced cytopathic effect by formazan-based conventional colorimetric technique; assay type: functional, organism-based; settings: Human immunodeficiency virus 1, RF
[5] = system: Human immunodeficiency virus 1; experiment: Antiviral activity against HIV1 in human CEM-SS cells assessed as inhibition of virus-induced cytopathic effect; assay type: functional, organism-based; settings: Human immunodeficiency virus 1, CEM-SS
[6] = target: Human immunodeficiency virus type 1 reverse transcriptase (Human immunodeficiency virus 1, UniProt Q72547); experiment: Inhibition of HIV1 reverse transcriptase
[7] = system: Human immunodeficiency virus 1; experiment: Antiviral activity against HIV1 RF in human CEM-SS cells assessed as inhibition of virus-induced cytopathic effect; assay type: functional, organism-based; settings: Human immunodeficiency virus 1, RF
[8] = Therapeutic index, ratio of cytotoxicity against human CEM-SS cells to EC50 for HIV1 RF; assay type: cell-based; settings: read-out: TI
[9] = system: Human immunodeficiency virus 1; experiment: Antiviral activity against HIV1 LAI in human MT2 cells assessed as virus-induced cytopathic effect after 72 hrs; assay type: functional; settings: Human immunodeficiency virus 1, LAI, MT2, 72 h; read-out: ED50 (the source's name)
[10] = Therapeutic index, ratio of cytotoxicity against human MT2 cells to EC50 for HIV1 LAI; assay type: cell-based; settings: read-out: TI
[11] = target: Human immunodeficiency virus type 1 integrase (Human immunodeficiency virus 1, UniProt Q7ZJM1); experiment: Inhibition of HIV1 integrase-catalyzed disintegration activity
[12] = system: Human immunodeficiency virus 1; experiment: Antiviral activity against HIV1 RF in human CEM cells; assay type: functional, organism-based; settings: Human immunodeficiency virus 1, RF, CCRF-CEM
[13] = system: Human immunodeficiency virus 1; experiment: Antiviral activity against HIV1 Rojo in human CEM cells; assay type: functional, organism-based; settings: Human immunodeficiency virus 1, Rojo, CCRF-CEM
[14] = system: Human immunodeficiency virus 2; experiment: Antiviral activity against HIV2; assay type: functional, organism-based
H9 = experiment: Cytotoxicity against human H9 cells; assay type: cell-based
[15] = system: Human immunodeficiency virus 1; experiment: Antiviral activity against azidothymidine-resistant HIV1 G9106; assay type: functional, organism-based; settings: Human immunodeficiency virus 1, G9106
[16] = system: Human immunodeficiency virus 1; experiment: Antiviral activity against pyridinone-resistant HIV1 A17; assay type: functional, organism-based; settings: Human immunodeficiency virus 1, A17
[17] = Therapeutic index, ratio of cytotoxicity against human MT2 cells to EC50 for HIV1 RF; assay type: cell-based; settings: read-out: TI
[18] = system: Human immunodeficiency virus 1; experiment: Antiviral activity against HIV1 RF in human MT2 cells assessed as virus-induced cytopathic effect after 72 hrs; assay type: functional; settings: Human immunodeficiency virus 1, RF, MT2, 72 h; read-out: ED50 (the source's name)

Sequence of Human immunodeficiency virus type 1 integrase (Q7ZJM1 whole entry): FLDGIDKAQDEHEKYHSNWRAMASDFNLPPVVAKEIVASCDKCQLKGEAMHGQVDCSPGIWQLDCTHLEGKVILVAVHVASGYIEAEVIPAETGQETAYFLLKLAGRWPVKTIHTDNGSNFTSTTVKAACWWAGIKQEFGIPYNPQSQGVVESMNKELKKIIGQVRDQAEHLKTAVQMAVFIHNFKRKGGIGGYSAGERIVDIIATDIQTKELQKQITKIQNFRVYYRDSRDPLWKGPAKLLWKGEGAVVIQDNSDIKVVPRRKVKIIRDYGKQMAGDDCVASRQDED

Nc1ccn([C@H]2CC[C@@H](CO)O2)c(=O)n1 [ZALCITABINE]
selectivity ratio [1]: 200 | selectivity ratio [2]: 200 | EC50 [3]: 1 nM | EC50 [4]: 1 nM

Cc1cn([C@H]2C=C[C@@H](CO)O2)c(=O)[nH]c1=O [STAVUDINE]
EC50 [3]: 60 nM | EC50 [4]: 60 nM

Nc1ncnc2c1ncn2[C@@H]1O[C@H](CO)C[C@@H]1F [LODENOSINE]
selectivity ratio [1]: > 17 | selectivity ratio [2]: > 17 | EC50 [3]: 1160 nM | EC50 [4]: 1160 nM

CC(C)=CCC[C@]1(C)C=Cc2c(ccc3c2C(=O)C(O)=C(C2=C(C4=C(O)C(=O)c5c(ccc6c5C=C[C@@](C)(CCC=C(C)C)O6)C4=O)C(=O)c4c(ccc5c4C=C[C@@](C)(CCC=C(C)C)O5)C2=O)C3=O)O1 [CONOCURVONE]
EC50 [5]: 20 nM

O=C(O[C@@H]1C[C@](OC(=O)c2cc(O)c(O)c(O)c2)(C(=O)O)C[C@@H](OC(=O)c2cc(O)c(O)c(O)c2)[C@H]1OC(=O)c1cc(O)c(O)c(O)c1)c1cc(O)c(O)c(O)c1
IC50 [6]: 800 nM | EC50 [7]: 500 nM | selectivity ratio [8]: 20

O=C(/C=C/c1ccc(O)c(O)c1)O[C@@H]1C[C@](O)(C(=O)O)C[C@@H](OC(=O)/C=C/c2ccc(O)c(O)c2)[C@H]1O
EC50 [9]: 1 µg/mL (≈ 1.94 µM) | selectivity ratio [10]: 150 | IC50 [11]: 1280 nM

CC(=O)O[C@@]12C[C@@H](C)[C@@]3(O)[C@@H](C=C(CO)C[C@]4(O)C(=O)C(C)=C[C@@H]34)[C@@H]1C2(C)C [PROSTRATIN]
EC50 [5]: ≤ 132 nM

Cc1cn([C@H]2C[C@H](N=[N+]=[N-])[C@@H](CO)O2)c(=O)[nH]c1=O [ZIDOVUDINE]
selectivity ratio [1]: > 1000 | selectivity ratio [2]: > 1000 | EC50 [3]: 1 nM | EC50 [4]: 1 nM

COc1cc2c[n+](C)c3c4cc5c(cc4ccc3c2cc1OC)OCO5 [NITIDINE CHLORIDE]
EC50 [7]: 14000 nM | selectivity ratio [8]: 3

Nc1ccn([C@@H]2CS[C@H](CO)O2)c(=O)n1 [LAMIVUDINE]
EC50 [3]: 60 nM | EC50 [4]: 60 nM

CCCc1cc(=O)oc2c3c(c4c(c12)OC(C)(C)CC4)O[C@@H](C)[C@H](C)[C@@H]3O [7,8-DIHYDROCALANOLIDE B]
EC50 [7]: 100 nM | selectivity ratio [8]: 99.8

O=c1[nH]cnc2c1ncn2[C@H]1CC[C@@H](CO)O1 [DIDANOSINE]
selectivity ratio [1]: 1760 | selectivity ratio [2]: 1760

CC(C)=CCOc1c(CC=C(C)C)c(O)nc2ccccc12
EC50 [7]: 1640 nM | selectivity ratio [8]: 17

CC(C)CC(=O)N[C@H](C(=O)N[C@H](C(=O)N[C@@H](CC(C)C)[C@@H](O)CC(=O)N[C@@H](C)C(=O)N[C@@H](CC(C)C)[C@@H](O)CC(=O)O)C(C)C)C(C)C [PEPSTATIN]
EC50 [12]: 69000 nM | EC50 [4]: 51800 nM | EC50 [13]: 150000 nM

C=CC(C)(C)C1(CC=C(C)C)C(=O)Nc2ccccc2C1=O (centres undefined) [BUCHAPINE]
IC50 [6]: 10000 nM | EC50 [7]: 940 nM | selectivity ratio [8]: 31

COc1cc(C)cc2c(-c3c(O)cc(O)c4c3C[C@@H](C)N[C@@H]4C)cc(-c3cc(-c4c(O)cc(O)c5c4C[C@@H](C)N[C@@H]5C)c4cc(C)cc(OC)c4c3O)c(O)c12 [MICHELLAMINE A]
EC50 [5]: 1000 nM

CSC[C@H](NC(=O)COc1cccc2cnccc12)C(=O)N[C@@H](Cc1ccccc1)[C@H](O)C(=O)N1CSC(C)(C)[C@H]1C(=O)NC(C)(C)C
EC50 [14]: 20 nM

C=CC(C)(CC/C=C(\C)CCC=C(C)C)c1cc(O)c(O)c(-c2cc(C(C)(C=C)CC/C=C(\C)CCC=C(C)C)cc(O)c2O)c1 (centres undefined) [PELTATOL A]
EC50 [5]: 8000 nM

CCCc1cc(=O)oc2c3c(c4c(c12)OC(C)(C)C=C4)O[C@@H](C)[C@H](C)[C@@H]3O [COSTATOLIDE]
EC50 [7]: 200 nM | selectivity ratio [8]: > 20

C=C1C(=O)[C@]23C[C@H]1CC[C@H]2[C@]1(C)CCC[C@@](C)(C(=O)O)[C@H]1C[C@@H]3OC(C)=O [XYLOPINIC ACID]
EC50 [5]: ≤ 900 nM

CN1CCCCC1c1c(O)cc(O)c2c(=O)cc(-c3ccccc3)oc12 (centres undefined)
EC50 [7]: 260 nM | selectivity ratio [8]: 3

CO[C@@H]1C[C@@H](C[C@H]2CC[C@H](C)[C@H]([C@@H](C)C(=O)O)O2)O[C@]2(O[C@](C)([C@H]3CC[C@@](C)([C@@H]4O[C@@H]([C@H]5O[C@@](O)(CO)[C@H](C)C[C@@H]5C)C[C@@H]4C)O3)C[C@H]2C)[C@@H]1C [NIGERICIN]
EC50 [4]: 6 nM | IC50 (H9): 140 nM

CSC[C@H](NC(=O)COc1cccc2cnccc12)C(=O)N[C@@H](Cc1ccccc1)[C@H](O)C(=O)N1CSC[C@H]1C(=O)NC(C)(C)C
selectivity ratio [2]: > 4.6 | EC50 [4]: 20 nM

CCCc1cc(=O)oc2c3c(c4c(c12)OC(C)(C)C=C4)O[C@H](C)[C@@H](C)[C@@H]3O [CALANOLIDE A]
EC50 [15]: ≤ 30 nM | EC50 [16]: ≤ 600 nM | EC50 [7]: 200 nM | selectivity ratio [8]: 103

COC(=O)C(=O)O[C@]1(C(=O)O)C[C@@H](OC(=O)/C=C/c2ccc(O)c(O)c2)[C@H](O)[C@H](OC(=O)/C=C/c2ccc(O)c(O)c2)C1
EC50 [9]: 4 µg/mL (≈ 6.64 µM) | selectivity ratio [10]: 87 | IC50 [11]: 946 nM

Cc1cc(O)c(C=O)c2c1C(=O)Oc1c(COC(=O)/C=C/C(=O)O)c(O)c(C(=O)O)c(C)c1O2 [FUMARPROTOCETRARIC ACID]
selectivity ratio [17]: > 4.61 | EC50 [18]: 8400 nM
